Values of other authors in patent publication US20190274986A1, “STERILE INJECTABLE COMPOSITION COMPRISING MELPHALAN” (CADILA HEALTHCARE LIMITED, priority 2018, published 2019).
Where two headings read alike, the source gives them in different places.

How the values were obtained:
[1] = not given; remark: listed apart in the source

| Molecule | Solubility (in 1 N HCl) | Solubility (in methanol) | Solubility (in water) | Dose with evidence of renal cellular toxicity ([1]; animal studies, repeated administration over 1-6 months) | Renal function on repeated administration ([1]; animal studies, repeated administration, even at much higher doses) | Renal effect in single-dose studies ([1]; animal trials, single-dose up to 2000 mg/kg i.v.) |
| --- | --- | --- | --- | --- | --- | --- |
| Cl.N[C@@H](Cc1ccc(N(CCCl)CCCl)cc1)C(=O)O [Melphalan, 4-[bis(2-chloroethyl)amino]-L-phenylalanine hydrochloride] | freely soluble | freely soluble | practically insoluble |  |  |  |
| sulfobutylether beta-cyclodextrin |  |  |  | ≥ 160 mg/kg/day | renal function was not impaired | renal tolerance |
